Test results: PubChem BioAssay AID328 (DTP/NCI, 2004)
Values joined by “and” are separate entries in the source; they are usually repeats but may differ in a detail not shown here. Identical values can stand only once. Inconclusive results and toxic doses are left out.

Test system: BDF1 mice, P388 leukemia ip, median survival T/C
Experiment: NCI In Vivo Anticancer Drug Screen. Data for tumor model P388 Leukemia (intraperitoneal) in B6D2F1 (BDF1) mice
Details: endpoint: median survival time, higher = longer survival
Procedure, shortened: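 Survival ratio, drug arm over vehicle arm, in mice with a transplanted tumour.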

[1] = dose: 50.0 mg/kg/injection, schedule: Q04DX003 (ip), vehicle: Klucel (hydroxypropylcellulose) (HPC)
[2] = dose: 100.0 mg/kg/injection, schedule: Q04DX003 (ip), vehicle: Klucel (hydroxypropylcellulose) (HPC)
[3] = dose: 25.0 mg/kg/injection, schedule: Q01DX009 (ip), vehicle: saline with Tween-80
[4] = dose: 50.0 mg/kg/injection, schedule: Q01DX009 (ip), vehicle: saline with Tween-80
[5] = dose: 200.0 mg/kg/injection, schedule: Q01DX009 (ip), vehicle: saline with Tween-80
[6] = dose: 100.0 mg/kg/injection, schedule: Q01DX009 (ip), vehicle: saline with Tween-80
[7] = dose: 25.0 mg/kg/injection, schedule: Q04DX003 (ip), vehicle: saline with Tween-80
[8] = dose: 50.0 mg/kg/injection, schedule: Q04DX003 (ip), vehicle: saline with Tween-80
[9] = dose: 100.0 mg/kg/injection, schedule: Q01DX009 (ip), vehicle: saline
[10] = dose: 200.0 mg/kg/injection, schedule: Q01DX009 (ip), vehicle: saline
[11] = dose: 100.0 mg/kg/injection, schedule: Q01DX009 (ip), vehicle: Klucel (hydroxypropylcellulose) (HPC)
[12] = dose: 200.0 mg/kg/injection, schedule: Q01DX009 (ip), vehicle: Klucel (hydroxypropylcellulose) (HPC)
[13] = dose: 200.0 mg/kg/injection, schedule: Q04DX003 (ip), vehicle: Klucel (hydroxypropylcellulose) (HPC)
[14] = dose: 400.0 mg/kg/injection, schedule: Q01DX009 (ip), vehicle: Klucel (hydroxypropylcellulose) (HPC)
[15] = dose: 400.0 mg/kg/injection, schedule: Q04DX003 (ip), vehicle: Klucel (hydroxypropylcellulose) (HPC)
[16] = dose: 12.5 mg/kg/injection, schedule: Q04DX003 (ip), vehicle: saline with Tween-80

CCc1cccc(CC)c1N1C(=O)C=CC1=O
T/C (dose: 1.56 mg/kg/injection, schedule: Q01DX009 (ip), vehicle: saline with Tween-80): 114 % of control
T/C (dose: 3.13 mg/kg/injection, schedule: Q01DX009 (ip), vehicle: saline with Tween-80): 100 % of control
T/C (dose: 6.25 mg/kg/injection, schedule: Q01DX009 (ip), vehicle: saline with Tween-80): 106 % of control
T/C (dose: 12.5 mg/kg/injection, schedule: Q01DX009 (ip), vehicle: saline with Tween-80): 99 % of control

O=C(/C(=C/c1ccccc1)CN1CCOCC1)c1ccccc1
T/C (dose: 25.0 mg/kg/injection, schedule: Q04DX003 (ip), vehicle: Klucel (hydroxypropylcellulose) (HPC)): 91 % of control
T/C [1]: 95 % of control
T/C [2]: 91 % of control

COC(CN1C(=O)CSC1=S)OC
T/C [3]: 100 % of control
T/C [4]: 104 % of control and 117 % of control
T/C [5]: 109 % of control

Cc1cc(O)c(C(c2ccccc2)c2c(O)cc(C)[nH]c2=O)c(=O)[nH]1
T/C [4]: 94 % of control
T/C [6]: 86 % of control

O=C(Nc1ccc(F)cc1)C12CC3CC(CC(C3)C1)C2
T/C [4]: 92 % of control
T/C [6]: 92 % of control
T/C [5]: 92 % of control

CC(=O)CSc1nc2nccnc2[nH]1
T/C [3]: 111 % of control
T/C [7]: 97 % of control
T/C [4]: 111 % of control
T/C [8]: 108 % of control
T/C [6]: 106 % of control
T/C (dose: 100.0 mg/kg/injection, schedule: Q04DX003 (ip), vehicle: saline with Tween-80): 97 % of control
T/C [5]: 106 % of control
T/C (dose: 200.0 mg/kg/injection, schedule: Q04DX003 (ip), vehicle: saline with Tween-80): 105 % of control
T/C (dose: 400.0 mg/kg/injection, schedule: Q01DX009 (ip), vehicle: saline with Tween-80): 103 % of control
T/C (dose: 400.0 mg/kg/injection, schedule: Q04DX003 (ip), vehicle: saline with Tween-80): 100 % of control

CCOc1ccc2[nH]c(=S)sc2c1
T/C (dose: 100.0 mg/kg/injection, schedule: Q01DX001 (ip), vehicle: Klucel (hydroxypropylcellulose) (HPC)): 116 % of control
T/C (dose: 200.0 mg/kg/injection, schedule: Q01DX001 (ip), vehicle: Klucel (hydroxypropylcellulose) (HPC)): 91 % of control
T/C (dose: 400.0 mg/kg/injection, schedule: Q01DX001 (ip), vehicle: Klucel (hydroxypropylcellulose) (HPC)): 95 % of control

CS(=O)(=O)C(=Cc1ccccc1Cl)S(C)(=O)=O
T/C [9]: 104 % of control
T/C [10]: 118 % of control
T/C (dose: 400.0 mg/kg/injection, schedule: Q01DX009 (ip), vehicle: saline): 121 % of control

C=CC(C)(O)CCC1C(=C)CCC2C(C)(C)CCCC12C (stereo unspecified)
T/C [11]: 90 % of control
T/C [2]: 95 % of control
T/C [12]: 86 % of control
T/C [13]: 100 % of control
T/C [14]: 95 % of control
T/C [15]: 95 % of control

CCCCC(CC)COC(=O)CC(CC(=O)OCC(CC)CCCC)C(=O)OCC(CC)CCCC (stereo unspecified)
T/C [4]: 92 % of control
T/C [6]: 92 % of control
T/C [5]: 92 % of control

CC(=O)Nc1ccc(C)c([N+](=O)[O-])c1
T/C (dose: 50.0 mg/kg/injection, schedule: Q01DX009 (ip), vehicle: saline): 92 % of control
T/C [9]: 97 % of control
T/C (dose: 100.0 mg/kg/injection, schedule: Q04DX003 (ip), vehicle: saline): 99 % of control
T/C [10]: 118 % of control
T/C (dose: 200.0 mg/kg/injection, schedule: Q04DX003 (ip), vehicle: saline): 100 % of control
T/C (dose: 400.0 mg/kg/injection, schedule: Q04DX003 (ip), vehicle: saline): 90 % of control

N#Cc1ccc(CC(O)c2ccc(Cl)cc2)cc1 (stereo unspecified)
T/C [4]: 108 % of control
T/C [6]: 89 % of control
T/C [5]: 96 % of control

Nc1cc(Cl)ncn1
T/C (dose: 60.0 mg/kg/injection, schedule: Q01DX009 (ip), vehicle: saline): 100 % of control
T/C (dose: 90.0 mg/kg/injection, schedule: Q01DX009 (ip), vehicle: saline): 97 % of control
T/C (dose: 175.0 mg/kg/injection, schedule: Q01DX009 (ip), vehicle: saline): 97 % of control
T/C [12]: 95 % of control

CC1=CC(=C2C=CC(=[N+](C)C)C=C2)C=C(C)S1
T/C (dose: 3.12 mg/kg/injection, schedule: Q01DX009 (ip), vehicle: distilled water + Tween-80 + alcohol): 113 % of control
T/C (dose: 6.25 mg/kg/injection, schedule: Q01DX009 (ip), vehicle: distilled water + Tween-80 + alcohol): 109 % of control
T/C (dose: 12.5 mg/kg/injection, schedule: Q01DX009 (ip), vehicle: distilled water + Tween-80 + alcohol): 114 % of control
T/C (dose: 25.0 mg/kg/injection, schedule: Q01DX009 (ip), vehicle: distilled water + Tween-80 + alcohol): 97 % of control

CCOC1C=CC(OC(C)=O)C(COC(C)=O)O1 (stereo unspecified)
T/C [11]: 90 % of control
T/C [2]: 100 % of control
T/C [12]: 86 % of control
T/C [13]: 104 % of control
T/C [14]: 100 % of control
T/C [15]: 100 % of control

O=Cc1ccc(C=O)c(Cl)c1
T/C [3]: 104 % of control
T/C [4]: 90 % of control
T/C (dose: 88.0 mg/kg/injection, schedule: Q04DX003 (ip), vehicle: saline sonified): 105 % of control
T/C [6]: 118 % of control
T/C (dose: 132.0 mg/kg/injection, schedule: Q04DX003 (ip), vehicle: saline sonified): 100 % of control
T/C (dose: 200.0 mg/kg/injection, schedule: Q04DX003 (ip), vehicle: saline sonified): 100 % of control
T/C (dose: 300.0 mg/kg/injection, schedule: Q04DX003 (ip), vehicle: saline sonified): 120 % of control

O=S(=O)(Nc1ccc(NS(=O)(=O)c2ccccc2)cc1)c1ccccc1
T/C (dose: 3.12 mg/kg/injection, schedule: Q01DX009 (ip), vehicle: Klucel (hydroxypropylcellulose) (HPC)): 100 % of control
T/C (dose: 6.25 mg/kg/injection, schedule: Q01DX009 (ip), vehicle: Klucel (hydroxypropylcellulose) (HPC)): 100 % of control
T/C (dose: 12.5 mg/kg/injection, schedule: Q01DX009 (ip), vehicle: Klucel (hydroxypropylcellulose) (HPC)): 95 % of control
T/C [11]: 96 % of control

COC(=O)/C=C1\Sc2ccc(Cl)cc2NC1=O
T/C [4]: 93 % of control
T/C [6]: 86 % of control
T/C [5]: 93 % of control

Cc1ccc(NC(=O)c2ccc(Cl)cc2)cc1
T/C [11]: 100 % of control
T/C [2]: 108 % of control
T/C [12]: 109 % of control
T/C [13]: 104 % of control
T/C [14]: 90 % of control
T/C [15]: 104 % of control

Clc1nc(SC2=NCCN2)c2[nH]cnc2n1
T/C [16]: 108 % of control
T/C (dose: 33.0 mg/kg/injection, schedule: Q04DX003 (ip), vehicle: saline with Tween-80): 118 % of control
T/C [8]: 154 % of control

C1CCCCCC(NC2=NCCO2)CCCCC1
T/C (dose: 3.13 mg/kg/injection, schedule: Q04DX003 (ip), vehicle: saline with Tween-80): 95 % of control
T/C (dose: 6.25 mg/kg/injection, schedule: Q04DX003 (ip), vehicle: saline with Tween-80): 95 % of control
T/C [16]: 108 % of control
T/C [7]: 90 % of control
T/C [8]: 90 % of control

CC(O)C(c1ccccc1)S(C)(=O)=O (stereo unspecified)
T/C [2]: 95 % of control
T/C [13]: 104 % of control
T/C [15]: 91 % of control

CCc1cccc(CC)c1-n1c(C)ccc1-c1ccccc1
T/C (dose: 50.0 mg/kg/injection, schedule: Q01DX009 (ip), vehicle: saline + alcohol): 106 % of control
T/C (dose: 100.0 mg/kg/injection, schedule: Q01DX009 (ip), vehicle: saline + alcohol): 101 % of control
T/C (dose: 200.0 mg/kg/injection, schedule: Q01DX009 (ip), vehicle: saline + alcohol): 106 % of control

Nc1nc(=S)c2ncn(C3OC(CO)CC3O)c2[nH]1 (stereo unspecified)
T/C [9]: 95 % of control

COc1ccc(OC(=O)Nc2ccccc2OC)cc1
T/C [2]: 91 % of control
T/C [13]: 91 % of control
T/C [15]: 87 % of control

Cc1ncc([N+](=O)[O-])n1CCO
T/C [1]: 100 % of control
T/C [2]: 100 % of control
T/C [13]: 95 % of control
T/C [15]: 91 % of control

CCC1(O)CC(OC2CC(N(C)C)C(OC3CC(O)C(OC4CCC(=O)C(C)O4)C(C)O3)C(C)O2)c2c(cc3c(c2O)C(=O)c2c(O)ccc(O)c2C3=O)C1C(=O)OC (stereo unspecified)
T/C (dose: 2.88 mg/kg/injection, schedule: Q04DX003 (ip), vehicle: water): 181 % of control
T/C (dose: 4.8 mg/kg/injection, schedule: Q04DX003 (ip), vehicle: water): 236 % of control
T/C (dose: 1:8.0 dilution, schedule: Q01DX009 (ip), vehicle: saline): 173 % of control
T/C (dose: 1:64.0 dilution, schedule: Q01DX009 (ip), vehicle: saline): 116 % of control

CC(=O)c1c(C)c([N+](=O)[O-])c(C(C)(C)C)c([N+](=O)[O-])c1C
T/C [12]: 91 % of control and 100 % of control
T/C [14]: 100 % of control and 123 % of control
